For the assay, the target named is recombinant eIF4E (Homo sapiens (Human), UniProt P06730). In words: Fluorescence polarization competition assay for eIF4E binding potency. A digest of the protocol: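 IC50 derived from fluorescence polarization over an 8-point, 3-fold compound series after 30 min room-temperature equilibration in the dark. Mix: eIF4E 75 nM pre-bound 5 min to 20 nM EDA-m^7GDP-ATTO-550; buffer 20 mM Tris pH 7.5, 100 mM NaCl, 1 mM DTT, 0.02% Tween-20; DMSO 1%.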
For orientation: In fluorescence polarisation assays a small probe gives low polarisation when free and higher when bound to something large.

The mark [1] stands for this setting: inhibition of eIF4E/EDA-m7GDP-ATTO-550 binding, calculated IC50 values, Table 4B, read-out: IC50.
[2] abbreviates: fluorescence polarization competition, 75 nM recombinant eIF4E, 20 nM EDA-m7GDP-ATTO-550, IC50 class, read-out: elF4E FP.
[3] abbreviates: inhibition of eIF4E/EDA-m7GDP-ATTO-550 binding by 50%, Table 4B calculated values, read-out: IC50.

Structures are written as SMILES. pIC50: −log10 of the molar value. Where two headings read alike, the source gives them in different places. Some results are limits rather than exact numbers.

Sequence of recombinant eIF4E (P06730 whole entry): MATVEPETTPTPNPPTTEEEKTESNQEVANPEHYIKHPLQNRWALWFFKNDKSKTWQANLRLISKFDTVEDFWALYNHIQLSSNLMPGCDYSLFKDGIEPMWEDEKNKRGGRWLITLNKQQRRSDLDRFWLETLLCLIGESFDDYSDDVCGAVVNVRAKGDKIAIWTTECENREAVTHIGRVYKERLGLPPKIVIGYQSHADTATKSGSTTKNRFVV

Turning to `CCN(c1ncc2nc(C)n(CC#Cc3ccc(Cl)cc3-c3ccnc4c(C(=O)NS(=O)(=O)C(C)(C)C)csc34)c(=O)c2c1C#N)C1CCN(C2COC2)CC1` [compound 1747], under setting [1], the pIC50 was 7.78.
Consider `Cc1cc(-c2cc(Cl)ccc2OCCn2c(C)nc3cc(C(F)(F)F)c(-c4cccnc4)nc3c2=O)c2scc(C(=O)O)c2n1` [compound 461], for which the pIC50 reads like this: under setting [2], over 7.30; under setting [3], 8.21.
With `Cc1nc2cc(OC(F)F)c(C(F)F)c(C#N)c2c(=O)n1CCOc1ccc(Cl)cc1-c1ccnc2c(C(=O)O)csc12` [compound 539], the pIC50 reads like this: under setting [2], over 7.30; under setting [3], 7.33.
Regarding `Cc1nc2cnc(N(C)C3CCN([C@H]4C[C@H](F)C4)CC3)c(C#N)c2c(=O)n1CC#Cc1ccc(Cl)cc1-c1ccnc2c(C(=O)NS(=O)(=O)c3ccccn3)csc12` [compound 1793], under setting [1], the pIC50 is 8.14.
Still for that read-out and setting: under `N#Cc1cc2c(=O)n(CCOc3ccc(Cl)cc3-c3cccc(C(=O)O)c3)c(C(F)F)nc2cn1` [compound 1996] stands 6.72.
On to `Cc1cc(-c2cc(Cl)ccc2OCCn2c(C)nc3cnc(-c4cccc(C(F)(F)F)c4)c(C#N)c3c2=O)c2scc(C(=O)O)c2n1` [compound 951], for which the pIC50 was over 7.30 under setting [2] and 7.36 under setting [3].
Take `Cc1nc2cnc(N(C)C3CCN(CC(F)(F)F)CC3)c(C#N)c2c(=O)n1CC#Cc1ccc(Cl)cc1-c1ccnc2c(C(=O)NS(=O)(=O)CC#N)csc12` [compound 1670]: under setting [1], the pIC50 was 8.25.
With `N#Cc1cc2c(=O)n(CCOc3ccc(Cl)cc3-c3cc(C(=O)O)cs3)cnc2cn1` [compound 83], the pIC50 under setting [2] was under 6.00 and the pIC50 under setting [3] was 5.59.
Taken in the same sequence, the figures for `Cc1nc2c(F)cc(CN(C)C)c(C#N)c2c(=O)n1CCOc1ccc(Cl)cc1-c1ccnc2c(C(=O)O)csc12` [compound 508] were over 7.30 and 7.82.
The like results for `Cc1cc(-c2cc(Cl)ccc2OCCn2c(C)nc3cc(Cl)c(C4CC4)c(C#N)c3c2=O)c2scc(C(=O)O)c2n1` [compound 1050] were, in that order, over 7.30 and 7.71.
Consider `Cc1ccc(-c2cc(Cl)ccc2OCCn2c(C)nc3cc(C(F)(F)F)c(N4CCN(C)CC4)c(C#N)c3c2=O)c2scc(C(=O)O)c12` [compound 1218], for which the pIC50 is over 7.30 under setting [2] and 7.88 under setting [1].
`Cc1nc2cc(C#N)c(Cl)c(C#N)c2c(=O)n1CCOc1ccc(Cl)cc1-c1ccnc2c(C(=O)O)csc12` [compound 239]: the pIC50 was over 7.30 under setting [2] and 7.54 under setting [3].
As for `Cc1cc(-c2cc(Cl)ccc2OCCn2c(C)nc3c(C)nc(C4CC4)c(C#N)c3c2=O)c2scc(C(=O)O)c2n1` [compound 742], the pIC50 is over 7.30 under setting [2] and 7.49 under setting [3].
The like results for `Cc1cc(-c2cc(Cl)ccc2OCCn2c(C)nc3cc(Cl)c(N4CCCC4=O)c(C#N)c3c2=O)c2scc(C(=O)O)c2n1` [compound 697] were, in that order, over 7.30 and 7.99.
Taken in the same sequence, the figures for `Cc1cc(C)nc(-c2c(C(F)(F)F)cc3nc(C)n(CCOc4ccc(Cl)cc4-c4cc(C)nc5c(C(=O)O)csc45)c(=O)c3c2C#N)n1` [compound 965] were 6.00 to 7.30 and 6.93.
Consider `Cc1nc2cnc(C#CC3(N(C)C)CC3)c(C#N)c2c(=O)n1CCOc1ccc(Cl)cc1-c1ccnc2c(C(=O)O)csc12` [compound 1329], for which the pIC50 under setting [1] is 7.45.
On to `Cc1cc(-c2cc(Cl)ccc2OCCn2c(C)nc3cc(C(F)(F)F)c(-c4ccn(C)n4)c(C#N)c3c2=O)c2scc(C(=O)O)c2n1` [compound 779], for which the pIC50 is, setting by setting: under setting [2], over 7.30; under setting [3], 8.02.
On to `Cc1nc2cnc(N3CCN(C)C4CC43)c(C#N)c2c(=O)n1C/C=C/c1ccc(Cl)cc1-c1ccnc2c(C(=O)O)csc12` (stereo not drawn) [compound 1347], for which the pIC50 under setting [1] was 7.38.
With `Cc1nc2cnc(N3CCN4CCC3C4)c(C#N)c2c(=O)n1CCOc1ccc(Cl)cc1-c1ccnc2c(C(=O)O)csc12` (stereo not drawn) [compound 1348], the pIC50 under setting [1] is 7.91.
Take `Cc1cc(-c2cc(Cl)ccc2OCCn2c(C)nc3cnc(C)c(C#N)c3c2=O)c2scc(C(=O)O)c2n1` [compound 419]: under setting [2], the pIC50 was over 7.30.
Take `Cc1nc2cnc(N3CCN(C(C)(C)C(F)(F)F)CC3)c(C#N)c2c(=O)n1CCOc1ccc(Cl)cc1-c1ccnc2c(C(=O)O)csc12` [compound 1316]: the pIC50 under setting [1] was 7.48.
With `Cc1c(CCOc2ccc(Cl)cc2-c2ccnc3c(C(=O)O)csc23)c(=O)c2c(C#N)cc(C(F)(F)F)cc2n1C` [compound 180], the pIC50 reads like this: under setting [2], over 7.30; under setting [3], 7.32.
For `Cc1cc(-c2cc(Cl)ccc2OCCn2c(C)nc3cc(C(F)(F)F)c(-c4ncc(F)cn4)c(C#N)c3c2=O)c2scc(C(=O)O)c2n1` [compound 966], the pIC50 by setting is: under setting [2], over 7.30; under setting [3], 8.45.
For `Cc1nc2cc(C(F)(F)F)c(N3CCN(C)CC3)c(C#N)c2c(=O)n1CCOc1ccc(Cl)cc1-c1ccnc2c(C#N)csc12` [compound 1254], under setting [1], the pIC50 is 7.58.
On to `CCc1cc(-c2cc(Cl)ccc2OCCn2c(C)nc3cc(C(F)(F)F)c(C4=CCN(C)CC4)c(C#N)c3c2=O)c2scc(C(=O)O)c2n1` [compound 1088], for which the pIC50 under setting [2] is 6.00 to 7.30 and the pIC50 under setting [3] was 7.27.
As for `CCc1cc(-c2cc(Cl)ccc2OCCn2c(C)nc3cnc(-c4ccccc4)c(C#N)c3c2=O)c2scc(C(=O)O)c2n1` [compound 1016], the pIC50 under setting [2] was over 7.30 and the pIC50 under setting [3] is 8.95.
Consider `Cc1nc2cnc(C#CCN(C)CC(F)(F)F)c(C#N)c2c(=O)n1CCOc1ccc(Cl)cc1-c1ccnc2c(C(=O)O)csc12` [compound 1327], for which the pIC50 under setting [1] was 7.71.
For `Cc1nc2c(F)cc(S(C)(=O)=O)c(C#N)c2c(=O)n1CCOc1ccc(Cl)cc1-c1ccnc2c(C(=O)O)csc12` [compound 293], the pIC50 under setting [2] is 6.00 to 7.30 and the pIC50 under setting [3] is 7.19.
Regarding `Cc1cc(-c2cc(Cl)ccc2OCCn2c(C)nc3cnc(-c4cccc(F)c4)c(C#N)c3c2=O)c2scc(C(=O)O)c2n1` [compound 942], the pIC50 runs as follows: under setting [2], over 7.30; under setting [3], 8.16.
Consider `Cc1nc2cc(C(F)(F)F)c(N3CCN(c4ccncc4)CC3)c(C#N)c2c(=O)n1CCOc1ccc(Cl)cc1-c1cccc(C(=O)O)c1` [compound 387], for which the pIC50 reads like this: under setting [2], 6.00 to 7.30; under setting [3], 6.21.
As to `Cc1ccc(F)c(-c2c(C(F)(F)F)cc3nc(C)n(CCOc4ccc(Cl)cc4-c4cc(C)nc5c(C(=O)O)csc45)c(=O)c3c2C#N)n1` [compound 434], the pIC50 is, setting by setting: under setting [2], over 7.30; under setting [3], 8.11.
Taken in the same sequence, the figures for `Cc1nc2cc(C(F)(F)F)cc(C#N)c2c(=O)n1CCOc1ccc(Cl)cc1-c1ccnc2c(CC(=O)O)csc12` [compound 202] were over 7.30 and 7.32.
For `Cc1nc2ccc(S(=O)(=O)N3CCC(F)(F)CC3)c(C#N)c2c(=O)n1CCOc1ccc(Cl)cc1-c1ccnc2c(C(=O)O)csc12` [compound 282], the pIC50 by setting is: under setting [2], over 7.30; under setting [3], 7.77.
Take `Cc1nc2c(F)cc(C(F)F)c(C#N)c2c(=O)n1CCOc1ccc(Cl)cc1-c1ccnc2c(C(=O)O)csc12` [compound 1944]: the pIC50 under setting [1] is 7.60.
`Cc1cccc(S(=O)(=O)NC(=O)c2csc3c(-c4cc(Cl)ccc4C#CCn4c(C)nc5cnc(N(C)C6CCN(CC(C)(F)F)CC6)c(C#N)c5c4=O)ccnc23)n1` [compound 1678]: the pIC50 under setting [1] was 7.55.
For the compound `Cc1cc(-c2cc(Cl)ccc2OCCn2c(C)nc3nc(C(F)(F)F)c(N4CCN(C)CC4)cc3c2=O)c2scc(C(=O)O)c2n1` [compound 849], the pIC50 by setting is: under setting [2], over 7.30; under setting [3], 7.84.
The like results for `Cc1cncc(-c2c(C(F)(F)F)cc3nc(C)n(CCOc4ccc(Cl)cc4-c4cc(C)nc5c(C(=O)O)csc45)c(=O)c3c2C#N)c1` [compound 775] were, in that order, over 7.30 and 7.32.
`Cc1nc2cnc(N(C)C3CCN(CC(F)(F)F)CC3)c(C#N)c2c(=O)n1CC#Cc1ccc(Cl)cc1-c1ccnc2c(C(N)=O)csc12` [compound 1594]: under setting [1], the pIC50 was 6.35.
As to `Cc1nc2cc(C(F)(F)F)cc(C#N)c2c(=O)n1CCOc1ccc(Cl)cc1-c1coc2c(C(=O)O)cccc12` [compound 300], the pIC50 under setting [2] was over 7.30 and the pIC50 under setting [3] is 7.61.
On to `N#Cc1cc2c(=O)n(C/C=C/c3ccc(Cl)cc3-c3cccc(C(=O)O)c3)cnc2cn1` [compound 41], for which the pIC50 by setting is: under setting [2], under 6.00; under setting [3], 5.46.
For `Cc1nc2cnc(N3CC4(CCN4C4CC4)C3)c(C#N)c2c(=O)n1CC#Cc1ccc(Cl)cc1-c1ccnc2c(C(=O)O)csc12` [compound 1525], under setting [1], the pIC50 is 7.82.
On to `CC(=O)N1CCN(c2c(C(F)(F)F)cc3nc(C)n(CCOc4ccc(Cl)cc4-c4cccc(C(=O)O)c4)c(=O)c3c2C#N)CC1` [compound 378], for which the pIC50 is over 7.30 under setting [2] and 7.35 under setting [3].
Turning to `CCN(c1ncc2nc(C)n(CC#Cc3ccc(Cl)cc3-c3ccnc4c(C(=O)NS(=O)(=O)c5ccccn5)csc34)c(=O)c2c1C#N)C1CCN([C@H]2C[C@@H](OC(F)(F)F)C2)CC1` [compound 1781], the pIC50 under setting [1] is 8.08.
With `Cc1nc2cnc(N(C)C3[C@@H]4CC[C@H]3CN(CC(C)(F)F)C4)c(C#N)c2c(=O)n1CC#Cc1ccc(Cl)cc1-c1ccnc2c(C(=O)O)csc12` (stereo partly drawn) [compound 1575], the pIC50 under setting [1] is 7.83.
`Cc1nc2cc(C(F)(F)F)c(CN(C)C)c(C#N)c2c(=O)n1CCOc1ccc(Cl)cc1-c1ccnc2c(C(=O)O)csc12` [compound 261]: the pIC50 reads like this: under setting [2], over 7.30; under setting [3], 7.38.
Regarding `Cc1cccc(-c2c(Cl)cc3nc(C)n(CCOc4ccc(Cl)cc4-c4cc(C)nc5c(C(=O)O)c(C)sc45)c(=O)c3c2C#N)n1` [compound 683], the pIC50 was over 7.30 under setting [2] and 7.39 under setting [3].
